In ChEMBL document CHEMBL1144099, “Three new antibacterial alkaloids from a marine sponge Stelletta species” (1999):

Each molecule was assayed on Escherichia coli (assay: Antibacterial activity against Escherichia coli at 20 ug/6 mm disk).
Assay type: functional

**Q.** For `CC(C)=CCC/C(C)=C/CC/C(C)=C/CC/C(C)=C/C(=O)NCCc1cn(CCCNC(=N)N)c[n+]1C.[Cl-]` [STELLETTAZOLE B], which “inhibition zone (IZ)” value is on record?
**A.** 6.1 mm

**Q.** With `CC(C)=CCC/C(C)=C/CC/C(C)=C/CC(=O)NC[C@@H]1CC[N+]2(C)CCCC[C@H]12.[Cl-]` (stereo partly drawn) [STELLETTAMIDE C] as the molecule, how does the “inhibition zone (IZ)” value read?
**A.** 10.5 mm

**Q.** `CC(C)=CCC/C(C)=C/CC/C(C)=C/CC/C(C)=C/C(=O)NCCc1cn(CCCN)c[n+]1C.[Cl-]` [STELLETTAZOLE C] was tested. Which “inhibition zone (IZ)” value did it give?
**A.** 6.2 mm
